Columns and labels:
human α1B‐adrenoceptor [1] = target: T1, human α1B‐adrenoceptor (Homo sapiens, UniProt P35368); test: Intracellular free calcium mobilization, CHO‐α1B cells; format: cell-based; settings: for Intracellular calcium release % ionomycin: maximal response as % of 10 µM ionomycin response
T1 construct: expressed in transfected cells; host or cells: CHO-K1
T1 sequence (P35368 1-520): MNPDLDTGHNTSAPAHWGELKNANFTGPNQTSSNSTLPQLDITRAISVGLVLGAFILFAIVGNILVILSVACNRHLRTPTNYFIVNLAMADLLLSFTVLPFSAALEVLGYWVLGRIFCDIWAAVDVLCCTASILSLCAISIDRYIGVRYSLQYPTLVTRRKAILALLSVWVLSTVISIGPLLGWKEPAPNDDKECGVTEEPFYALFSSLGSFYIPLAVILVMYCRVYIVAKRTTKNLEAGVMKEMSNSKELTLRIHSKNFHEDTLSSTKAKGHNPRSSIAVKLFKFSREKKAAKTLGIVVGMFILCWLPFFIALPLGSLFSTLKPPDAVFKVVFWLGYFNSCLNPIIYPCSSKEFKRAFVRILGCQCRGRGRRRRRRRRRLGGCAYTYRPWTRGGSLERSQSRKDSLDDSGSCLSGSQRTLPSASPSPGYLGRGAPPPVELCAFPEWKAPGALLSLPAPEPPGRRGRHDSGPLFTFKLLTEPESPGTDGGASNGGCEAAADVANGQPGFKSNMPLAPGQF

human α1B‐adrenoceptor [2] = target: T1, human α1B‐adrenoceptor; test: ERK1/2‐phosphorylation (Surefire Alphascreen), CHO‐α1B cells; format: cell-based
[3] = target: T2, human α1D‐adrenoceptor (full length) (Homo sapiens, UniProt P25100); test: Intracellular free calcium mobilization, CHO‐α1D cells; format: cell-based; settings: CHO‐α1D cells; for Intracellular calcium release Log EC50: log values given negative; for Intracellular calcium release % ionomycin: maximal response as % of 10 µM ionomycin
T2 construct: human α1D‐adrenoceptor (full length) were used; expressed in transfected cells; host or cells: CHO-K1
T2 sequence (P25100 1-572): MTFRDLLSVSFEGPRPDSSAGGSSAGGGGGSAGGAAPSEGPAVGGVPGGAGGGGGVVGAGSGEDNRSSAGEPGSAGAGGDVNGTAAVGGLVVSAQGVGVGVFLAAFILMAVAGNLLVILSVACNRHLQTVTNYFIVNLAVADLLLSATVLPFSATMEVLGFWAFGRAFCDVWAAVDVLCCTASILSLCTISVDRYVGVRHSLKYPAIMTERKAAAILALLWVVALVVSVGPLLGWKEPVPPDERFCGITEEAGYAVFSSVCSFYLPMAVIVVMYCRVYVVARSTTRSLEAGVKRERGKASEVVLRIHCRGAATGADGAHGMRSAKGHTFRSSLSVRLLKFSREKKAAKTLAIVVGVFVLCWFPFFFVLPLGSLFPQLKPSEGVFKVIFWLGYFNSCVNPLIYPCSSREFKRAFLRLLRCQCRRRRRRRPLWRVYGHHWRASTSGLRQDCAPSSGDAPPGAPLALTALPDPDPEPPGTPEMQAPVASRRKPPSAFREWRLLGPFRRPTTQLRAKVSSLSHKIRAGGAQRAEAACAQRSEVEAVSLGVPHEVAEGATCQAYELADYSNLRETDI

[4] = target: T2, human α1D‐adrenoceptor (full length); test: ^3H‐prazosin whole‐cell radioligand binding, CHO‐α1D cells; settings: for Affinity selectivity ratio α1B vs α1D: higher affinity for α1D than α1B
[5] = target: T2, human α1D‐adrenoceptor (full length); test: ERK1/2‐phosphorylation (Surefire Alphascreen), CHO‐α1D cells; format: cell-based; settings: CHO‐α1D cells; for ERK1/2‐phosphorylation Log EC50: log values given negative; for ERK1/2‐phosphorylation % PDBu: maximal response as % of PDBu
human α1A‐adrenoceptor [6] = target: T3, human α1A‐adrenoceptor (Homo sapiens, UniProt P35348); test: ERK1/2‐phosphorylation (Surefire Alphascreen), CHO‐α1A cells; format: cell-based; settings: CHO‐α1A cells; response at 100 μM ligand, no EC50 obtained
T3 construct: expressed in transfected cells; host or cells: CHO-K1
T3 sequence (P35348 1-466): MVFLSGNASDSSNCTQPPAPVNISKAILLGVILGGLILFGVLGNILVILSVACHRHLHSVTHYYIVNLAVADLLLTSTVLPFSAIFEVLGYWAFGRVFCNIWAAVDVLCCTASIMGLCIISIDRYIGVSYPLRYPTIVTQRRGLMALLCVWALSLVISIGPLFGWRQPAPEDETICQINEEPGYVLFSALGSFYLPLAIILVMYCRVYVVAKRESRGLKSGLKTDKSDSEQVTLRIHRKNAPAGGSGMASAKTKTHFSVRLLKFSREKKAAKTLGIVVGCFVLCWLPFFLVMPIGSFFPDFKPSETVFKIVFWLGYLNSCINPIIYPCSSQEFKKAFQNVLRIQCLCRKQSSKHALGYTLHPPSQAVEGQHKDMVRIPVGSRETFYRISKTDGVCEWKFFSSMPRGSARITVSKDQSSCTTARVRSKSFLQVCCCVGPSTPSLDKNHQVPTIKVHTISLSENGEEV

[7] = test system: parental CHO cell line without any transfected receptors; test: ERK1/2‐phosphorylation, parent CHO cells without transfected receptors; format: cell-based, Chinese hamster; settings: for ERK1/2-phosphorylation % PDBu / ERK1/2-phosphorylation Log EC50: CHO cells without transfected receptors, mean ± s.e.m.; for ERK1/2-phosphorylation % PDBu: maximal response as % of PDBu (10μM) response
human α1B‐adrenoceptor [8] = target: T1, human α1B‐adrenoceptor; test: ^3H‐prazosin whole‐cell radioligand binding, CHO‐α1B cells; settings: CHO‐α1B cells; for Log KD, ^3H‐prazosin binding: whole‐cell binding (from Table 1), given as log KD (negative numbers); for Log KD α1B, ^3H‐prazosin whole cell binding: given as log KD (negative), mean ± SEM
human α1A‐adrenoceptor [9] = target: T3, human α1A‐adrenoceptor; test: ^3H‐prazosin whole‐cell radioligand binding, CHO‐α1A cells; settings: for Log KD α1A, ^3H‐prazosin whole cell binding: CHO‐α1A cells, given as log KD (negative), mean ± SEM; for Affinity selectivity ratio α1A vs α1B: higher affinity for α1A than α1B; for Affinity selectivity ratio α1A vs α1D: higher affinity for α1A than α1D
human α1A‐adrenoceptor [10] = target: T3, human α1A‐adrenoceptor; test: Intracellular free calcium mobilization, CHO‐α1A cells; format: cell-based; settings: CHO‐α1A cells; for Intracellular calcium release % ionomycin at 10 µM: response at 10 μM ligand, no EC50 obtained
[11] = CHO‐α1D cells, given as log KD (negative), mean ± SEM, 'early plateau' = specific binding not fully inhibited
[12] = CHO‐α1B cells, given as log EC50 (negative numbers)
[13] = CHO‐α1D cells, whole‐cell binding (from Table 1), log values given negative

Compound | Intracellular calcium release % ionomycin (human α1B‐adrenoceptor [1]; CHO‐α1B cells) | Intracellular calcium release Log EC50 [3] | Intracellular calcium release % ionomycin [3] | Intracellular calcium release Log EC50 (human α1B‐adrenoceptor [1]; [12]) | Log KD α1D, ^3H‐prazosin whole cell binding [4, 11] | ERK1/2‐phosphorylation Log EC50 [5] | ERK1/2‐phosphorylation % PDBu [5] | Log KD α1A, ^3H‐prazosin whole cell binding (human α1A‐adrenoceptor [9]) | ERK1/2-phosphorylation % PDBu [7] | ERK1/2-phosphorylation Log EC50 [7] | Log KD, ^3H‐prazosin binding (human α1B‐adrenoceptor [8]) | Log KD α1B, ^3H‐prazosin whole cell binding (human α1B‐adrenoceptor [8]) | 3H‐prazosin binding Log KD [4, 13] | Affinity selectivity ratio α1B vs α1D [4] [fold] | Affinity selectivity ratio α1A vs α1B (human α1A‐adrenoceptor [9]) [fold] | Affinity selectivity ratio α1A vs α1D (human α1A‐adrenoceptor [9]) [fold] | Intracellular calcium release % ionomycin at 10 µM (human α1A‐adrenoceptor [10]) [%] | further results
CN[C@@H](C)[C@H](O)c1ccccc1 [Epdedrine] | – | – | – | – | – | – | – | – | – | – | – | – | – | – | – | – | – | Intracellular calcium release % Ionomycin at 100 µM (human α1B‐adrenoceptor [1]): 18.5 ± 2.9%; ERK1/2‐phosphorylation % PDBu (human α1B‐adrenoceptor [2]): 19.1 ± 4.0%; ERK1/2‐phosphorylation Log EC50 (human α1B‐adrenoceptor [2]): −4.67 ± 0.17
CC(C)(C)NCC(O)c1ccc(O)c(CO)c1 (stereo not shown) [Salbutamol] | 58.4 ± 3.0% | No response | No response | – | – | – | – | – | – | – | – | – | – | – | – | – | – | EC50 (human α1B‐adrenoceptor [1]; CHO‐α1B cells, given as log EC50 (negative numbers), read-out: Intracellular calcium release Log EC50 (converted)): 7.24 µM; ERK1/2‐phosphorylation % PDBu at 100 µM (human α1B‐adrenoceptor [2]; CHO‐α1B cells, response at 100 µM ligand (no EC50 given)): 7.1 ± 3.5%; Kd ([4]; 3H‐prazosin binding Log KD, CHO‐α1D cells, whole‐cell binding (from Table 1), log values given negative): 135 µM; Kd [4, 11]: 135 µM; ERK1/2‐phosphorylation % PDBu at 100 µM ([5]; response at 100 µM ligand (no EC50 given)): 4.0 ± 2.5%; ERK1/2‐phosphorylation % PDBu at 100 µM (human α1A‐adrenoceptor [6]): 4.3 ± 1.9%; Emax at 100 µM ([7]; Cricetulus griseus, CHO, read-out: ERK1/2-phosphorylation % PDBu at 100μM): 3.5 ± 2%; IC50 (human α1B‐adrenoceptor [8]; printed as IC50> log value): > 1 mM
C[C@](N)(Cc1ccc(O)c(O)c1)C(=O)O [Methyldopa] | No response | No response | No response | No response | No binding | No response | No response | No binding | No response | No response | No binding | No binding | – | – | – | – | – | IC50 ([4]; CHO‐α1D cells, whole‐cell binding, given as IC50 > log value): > 100 µM; Intracellular calcium release Log EC50 (human α1A‐adrenoceptor [10]; given as log EC50 (negative)): No response; Intracellular calcium release % ionomycin (human α1A‐adrenoceptor [10]; maximal response as % of 10 µM ionomycin): No response
C1=C(c2cnc[nH]2)c2ccsc2CC1 [RWJ52353] | – | No response | No response | – | −4.30 ± 0.12 | No response | No response | −5.28 ± 0.08 | No response | No response | – | – | −4.30 | >20 | >190 | 9.6 | 39.4 ± 2.4 | Intracellular calcium release % ionomycin at 10 µM (human α1B‐adrenoceptor [1]; CHO‐α1B cells, response at 10 µM ligand (no EC50 given), % of ionomycin response): 8.1 ± 3.1%; Log IC50 α1B, ^3H‐prazosin whole cell binding (human α1B‐adrenoceptor [8]; printed as IC50> log value): IC50 >−3
Cc1sc(C)c2c1CCC=C2c1cnc[nH]1.O=C(O)/C=C\C(=O)O [T‐CG 1000] | No response | No response | No response | No response | −5.91 ± 0.12 | – | – | −5.96 ± 0.05 | – | – | −5.18 | −5.18 ± 0.06 | −5.91 | 5.4 | 6.0 | 1.1 | 21.0 ± 1.9 | ERK1/2‐phosphorylation % PDBu at 10 µM ([5]; response at 10 µM ligand (no EC50 given)): 16.3 ± 5.9%

Source: PMC8343220, “The selectivity of α‐adrenoceptor agonists for the human α1A, α1B, and α1D‐adrenoceptors” (Pharmacology Research & Perspectives, 2021)
